Converted amounts (≈) assume the structure as drawn.
Legend:
[1] = physchem; conditions: buffer, pH 7.4
[2] = physchem; conditions: buffer, pH 7.4; remark: listed apart in the source
[3] = Oral bioavailability in Han Wistar rat at 2 mg/kg; format: ADME, organism-based; conditions: in vivo
[4] = Volume of distribution at steady state in beagle dog at 1 mg/kg, iv and 1 mg/kg, po; format: ADME, organism-based, Canis lupus familiaris; conditions: in vivo, read-out: Vdss
[5] = Oral bioavailability in beagle dog at 1 mg/kg; format: ADME, organism-based, Canis lupus familiaris; conditions: in vivo
[6] = Volume of distribution at steady state in Han Wistar rat at 1 mg/kg, iv and 2 mg/kg, po; format: ADME, organism-based; conditions: in vivo, read-out: Vdss

logD [1]	solubility [2] [µM]	bioavailability [3] [%]	Vd [4] [L/kg]	bioavailability [5] [%]	Vd [6] [L/kg]	SMILES
3.5	96 (≈ 44.5 µg/mL)					N#CC1(NC(=O)[C@@H]2CCCC[C@H]2C(=O)N2CCN(c3nc(-c4ccccc4)cs3)CC2)CC1
3.3	280 (≈ 124 µg/mL)					CC(C)(C)c1csc(N2CCN(C(=O)[C@@H]3CCCC[C@H]3C(=O)NC3(C#N)CC3)CC2)n1
1.5		3.3			0.54	CS(=O)(=O)c1ccc2nc(N3CCN(C(=O)[C@@H]4CCCC[C@H]4C(=O)NC4(C#N)CC4)CC3)sc2c1
1.9	2600 (≈ 1180 µg/mL)					CC(C)(C#N)c1cnc(N2CCN(C(=O)[C@@H]3CCCC[C@H]3C(=O)NC3(C#N)CC3)CC2)s1
2.4	1700 (≈ 802 µg/mL)					CC1(C)COCc2sc(N3CCN(C(=O)[C@@H]4CCCC[C@H]4C(=O)NC4(C#N)CC4)CC3)nc21

Continued, compound first:

SMILES	logD [1]	solubility [2] [µM]	bioavailability [3] [%]	Vd [4] [L/kg]	bioavailability [5] [%]	Vd [6] [L/kg]
N#CC1(NC(=O)[C@@H]2CCCC[C@H]2C(=O)N2CCN(c3nc4ccccc4s3)CC2)CC1	2.6	1000 (≈ 438 µg/mL)	20	1.5	78	1.5
N#CC1(NC(=O)[C@@H]2CCCC[C@H]2C(=O)N2CCN(c3nccs3)CC2)CC1	1.3	3100 (≈ 1200 µg/mL)				
N#CC1(NC(=O)[C@@H]2CCCC[C@H]2C(=O)N2CCN(c3nc(C(F)(F)F)cs3)CC2)CC1	2.4					
Cc1sc(N2CCN(C(=O)[C@@H]3CCCC[C@H]3C(=O)NC3(C#N)CC3)CC2)nc1C(F)(F)F	2.9					
N#CC1(NC(=O)[C@@H]2CCCC[C@H]2C(=O)N2CCN(c3nc(C(F)(F)F)c(Cl)s3)CC2)CC1	3.4					
N#Cc1cnc(N2CCN(C(=O)[C@@H]3CCCC[C@H]3C(=O)NC3(C#N)CC3)CC2)s1	1.2					
N#CC1(NC(=O)[C@@H]2CCCC[C@H]2C(=O)N2CCN(c3nc4ccncc4s3)CC2)CC1	1.6	> 1600				
N#CC1(NC(=O)[C@@H]2CCCC[C@H]2C(=O)N2CCN(c3nc4cnccc4s3)CC2)CC1	1.7	> 1500	17			0.8
N#CC1(NC(=O)[C@@H]2CCCC[C@H]2C(=O)N2CCN(c3nc4ncccc4s3)CC2)CC1	1.4	> 2000				
N#CC1(NC(=O)[C@@H]2CCCC[C@H]2C(=O)N2CCN(c3nc4c(s3)CCC4)CC2)CC1	> 3					
N#CC1(NC(=O)[C@@H]2CCCC[C@H]2C(=O)N2CCN(c3nc4c(s3)COCC4)CC2)CC1	1.4	> 3600	33			1.3

— ChEMBL document CHEMBL2069241, “Isosteric replacements for benzothiazoles and optimisation to potent Cathepsin K inhibitors free from hERG channel inhibition” (Bioorg Med Chem Lett, 2012)
